We go through four compounds from the NIST ThermoML archive (doi:10.1016/j.jct.2011.05.003).

Molecules are shown by their SMILES. Numbers after ± are expanded uncertainties.

The conditions of the data set: 101.33 kPa, Liquid; for speed of sound: Sing-around technique in a fixed-path interferometer; for mass density: Vibrating tube method.

The term speed of sound denotes how fast a sound wave travels through the sample. One may read the mass density as the mass of a sample divided by its volume. For the compound `CCCCCC(C)=O` [2-heptanone], the speed of sound (293.15 K) was 1281.9 ± 1.2 m/s, the speed of sound (298.15 K) is 1262.5 ± 1.2 m/s and the speed of sound (303.15 K) is 1244.1 ± 1.2 m/s. In addition, the mass density is, setting by setting: (293.15 K) 815.433 ± 0.24 kg/m3; (298.15 K) 811.139 ± 0.24 kg/m3; (303.15 K) 806.827 ± 0.24 kg/m3.
Turning to `CCCCNCCCC` [dibutylamine], the speed of sound was found to be 1261.2 ± 0.83 m/s (293.15 K), 1241.4 ± 0.82 m/s (298.15 K) and 1222.2 ± 0.82 m/s (303.15 K). Also, the mass density is recorded as 759.529 ± 0.16 kg/m3 (293.15 K), 755.577 ± 0.16 kg/m3 (298.15 K) and 751.407 ± 0.16 kg/m3 (303.15 K).
Consider `CCCNCCC` [dipropylamine], for which the speed of sound (293.15 K) was 1209.4 ± 1.2 m/s, the speed of sound (298.15 K) stood at 1188 ± 1.2 m/s and the speed of sound (303.15 K) was found to be 1167.6 ± 1.2 m/s. Also, the mass density by setting is: (293.15 K) 738.259 ± 0.25 kg/m3; (298.15 K) 733.81 ± 0.25 kg/m3.
For `CCN(CC)CC` [triethylamine], the speed of sound (293.15 K) was found to be 1132.5 ± 0.8 m/s, the speed of sound (298.15 K) was found to be 1110.9 ± 0.8 m/s and the speed of sound (303.15 K) is reported as 1090.7 ± 0.78 m/s. In addition, the mass density came to 727.333 ± 0.17 kg/m3 (293.15 K), 722.729 ± 0.17 kg/m3 (298.15 K) and 718.092 ± 0.17 kg/m3 (303.15 K).
